# Laboratory results: patent publication US11844768B2, “Terameprocol and nordihydroguaiaretic acid (NDGA) derivatives as coronavirus anti-viral agents” (Erimos Pharmaceuticals, LLC, priority 2021, dated 2023)
# Structures can show the parent of a compound that is named as a salt. Where two headings read alike, the source gives them in different places.
# Assays:
# [1] = system: NL63-infected LLC-MK2 cells; test: LDH release cytotoxicity assay on NL63-infected LLC-MK2 cells; assay type: cell-based, rhesus monkey; conditions: five days
# Experimental: With reference to FIG. 2 (Example 2), the exposure time of TMP on NL63-infected LLC-MK2 cells was measured to determine if long-term exposure to TMP could result in cell cytotoxicity. Cytotoxicity to the host cells can be caused by viral infection, which causes cell lysis, or by toxicity of test compounds to host cells. Cytotoxicity is measured by the release of lactate dehydrogenase (LDH), a cellular housekeeping enzyme, and its conversion of a colored substrate in the final reaction. Cells that die or lyse release LDH into the extracellular milieu; thus, the more LDH that is released by dying cells, the higher the LDH reading.
# LLC-MK2 cells were inoculated with NL63 as provided in Example 1. The cells were tested for cytotoxicity through the release of lactate dehydrogenase (LDH), the latter of which was measured and quantified with an LDH assay multiplate reader. The cytotoxicity assay was performed three times and values for each treatment group and controls were averaged across assays, as show in FIGS. 2 and 3.
# [2] = system: SARS-CoV-2; assay type: cell-based
# [3] = system: SARS-CoV-2-infected Vero E6 cells; test: Cell cytotoxicity (cell lysis / plaques, monoclonal antibody) of SARS-CoV-2-infected Vero E6 cells; assay type: cell-based, African green monkey; conditions: 48 hours; for cell cytotoxicity (cell lysis): FIG. 5
# Experimental: With reference to FIG. 5 (Example 3), Vero E6 were infected with SARS-CoV-2 virus, treated with 0.2 μM, 1.0 μM, 5.0 μM, 20 μM, and 80 μM of TMP, and tested for cell cytotoxicity using monoclonal antibodies after 48 hours. Infected Vero E6 cells without treatment were used as a negative control and infected Vero E6 cells treated with CM were used as a positive control. Here, the cells were tested for cytotoxicity via the formation of plaques identified with a monoclonal antibody.
# (§1) Vero E6 African green monkey kidney epithelial cells were cultured as host cells for the SARS-CoV-2 coronavirus in 96-well cell culture plates. 500-1500 units of SARS-CoV-2 virus in Eagle's minimal essential medium (EMEM) with 10% Fetal Bovine Serum (FBS), L-glutamine, and Na-pyruvate phosphate buffered saline was introduced to the Vero E6 cell culture wells as described in Ogando et al., Journal of General Virology (2020) (available at biorxiv.org/content/10.1101/2020.04.20.049924v1). […] Plaques were identified using a plaque assay with the mouse monoclonal antibody J2 (Ogando et al., supra). Viral RNA was also isolated from the media supernatant and virus copy number was determined by RT-PCR for estimation of virus copy number following treatment.
# Stock solutions of TMP were prepared by dissolving TMP in 100% DMSO at 50 mM with warming at 70° C. for 3 hours. TMP was added to the SARS-CoV-2-infected Vero E6 cells in the following concentrations: 0.2 μM, 1 μM, 5 μM, 20 μM, and 80 μM. Untreated infected Vero E6 cells and infected Vero E6 treated with CM were used as negative and positive controls, respectively. 48 hours following treatment with TMP, 400 μL of supernatant was collected from each plate well and viral RNA (no cellular RNA was collected) and virus copy number were measured from the extracted DNA by the ORIG3N RT-PCR test for the 1 μM, 5 μM, and 20 μM TMP-treatment wells as well as for the negative and positive controls. Separately, cell lysis was measured for all five TMP-treatment wells as well as for the negative and positive controls. The assay was repeated two additional times. FIGS. 4A-4C show the mean±SD of the number of copies of SARS-CoV-2 RNA measured from the cell supernatant for the three assay runs of the Vero E6 cells.
# [4] = system: SARS-CoV-2; assay type: cell-based; conditions: 48 hours, Calu-3, FIG. 6
# [5] = system: SARS-CoV-2-infected Calu-3 cells; test: Cell cytotoxicity (plaques, monoclonal antibody) of SARS-CoV-2-infected Calu-3 cells; assay type: cell-based, human; conditions: 48 hours, Calu-3, FIG. 6
# Experimental: With reference to FIG. 6 (Example 4), the TMP-treatment protocol for the Vero E6 cells was repeated with Calu-3 cells (human non-small-cell lung cancer cells) infected with SARS-CoV-2. Infected Calu-3 cells without treatment were used as a negative control and infected Calu-3 cells treated with CM were used as a positive control. A monoclonal antibody was used to identify cell cytotoxicity.
# as §1, with “Calu-3 human non-small-cell lung cancer” for “Vero E6 African green monkey kidney epithelial”, “supra.” for “Journal of General Virology (2020) (available at biorxiv.org/content/10.1101/2020.04.20.049924v1).”
# Stock solutions of TMP were prepared by dissolving TMP in 100% DMSO at 50 mM with warming at 70° C. for 3 hours. TMP was added to the SARS-CoV-2-infected Vero E6 cells in the following concentrations: 5 μM, 20 μM, and 40 μM. Untreated infected Vero E6 cells and infected Vero E6 treated with CM were used as negative and positive controls, respectively. 48 hours following treatment with TMP, 400 μL of supernatant was collected from each plate well and viral RNA (no cellular RNA was collected) and virus copy number were measured determined from the extracted DNA by the ORIG3N RT-PCR test. The assay was repeated two additional times.
# [6] = system: HCoV-NL63; conditions: 48 hours; for cell toxicity resulting from the TMP treatment: LLC-MK2 cells
structure (smiles),measurement,setting,value
"COc1ccc(C[C@@H](C)[C@@H](C)Cc2ccc(OC)c(OC)c2)cc1OC [TMP, Tetra-O-methyl NDGA]",cell lysis (LDH release),"[1]; 0.2 μM TMP, FIG. 3",1-2%
same,cell lysis (LDH release),"[1]; 5 μM TMP, FIG. 2",10%
same,cell lysis (LDH release),"[1]; 5 μM TMP, FIG. 3",~20%
same,cell lysis (LDH release),"[1]; 20 μM TMP, FIG. 2",20-30%
same,"cell lysis (LDH release), observation","[1]; 80 μM TMP, FIG. 2",cells separating from the plate
same,cell lysis (LDH release),"[1]; increased TMP concentration (between 0.2 and 5 μM; FIG. 3 series 0.2, 1, 5 μM)",approximately 8%
same,viral activity,"[2]; 1 μM TMP, 48 hours, FIGS. 4B and 4C",increase in viral activity
same,viral replication,"[2]; 5 μM TMP, 48 hours, FIGS. 4B and 4C",zero viral replication
same,viral replication,"[2]; 20 μM TMP, 48 hours, FIG. 4A",almost zero viral replication
same,viral replication,"[2]; 20 μM TMP, 48 hours, FIGS. 4B and 4C",reduction in viral replication comparable to the CM-treated positive control
same,dose response of viral replication,"[2]; FIG. 4A, 48 hours, Vero E6",linear dose response
same,optimal TMP treatment range,"[2]; SARS-CoV-2-infected Vero E6 in vitro, FIGS. 4A-4C",5 µM
same,cell cytotoxicity (cell lysis),[3]; 0.2 μM TMP,no appreciable cytotoxic effects
same,cell cytotoxicity (cell lysis),[3]; 1.0 μM TMP,no appreciable cytotoxic effects
same,cell cytotoxicity (cell lysis),[3]; 5 μM TMP,no appreciable cytotoxic effects
same,cell cytotoxicity (cell lysis),[3]; 20 μM TMP,reduced in comparison to the 80 μM treatment
same,cell toxicity resulting from the TMP treatment,"[3]; 20 μM TMP, FIGS. 4B and 4C runs",no discernable cell toxicity
same,cell cytotoxicity (cell lysis),[3]; 80 μM TMP,high percentage of cell lysis
same,reduction in the mean number of copies of SARS-CoV-2 compared to the negative control,[4]; 5 μM TMP,25%
same,viral replication,[4]; 20 μM TMP,almost zero viral replication
same,viral replication,[4]; 40 μM TMP,almost zero viral replication
same,cell cytotoxicity,[5]; 5 μM TMP,non-detectable cytotoxicity
same,cell cytotoxicity,[5]; 20 μM TMP,non-detectable cytotoxicity
same,cell cytotoxicity,[5]; 40 μM TMP,only slightly increased cytotoxicity
same,viral activity,"[6]; 0.2 μM TMP, FIG. 1",partial reduction in viral activity
same,viral RNA copy number (mean+standard deviation),"[6]; 0.2 μM TMP, NL63-infected LLC-MK2 cells, FIG. 1, P=0.004 versus negative control","50,882+2,296 copies"
same,viral activity,"[6]; 1 μM TMP, FIG. 1",almost no viral activity
same,cell toxicity resulting from the TMP treatment,[6]; 1 μM TMP,no discernable cell toxicity
same,viral activity,"[6]; 5 μM TMP, FIG. 1",almost no viral activity
same,cell toxicity resulting from the TMP treatment,[6]; 5 μM TMP,no discernable cell toxicity
same,dose response of viral RNA,"[6]; 0.2, 1 and 5 μM TMP, FIG. 1",linear response that plateaued at 1 μM TMP
"CN(C)C(=O)COC(=O)Cc1ccc(OC(=O)c2ccc(NC(=N)N)cc2)cc1 [CM, camostat mesylate, reference compound]",cell toxicity (LDH release),"[1]; CM positive control, FIG. 2",no cell toxicity
same,cell cytotoxicity (cell lysis),[3]; CM positive control,no appreciable cytotoxic effects
same,viral replication,[4]; CM control,almost zero viral replication
